Source: patent US20260285875A1, “INHIBITORS OF PARG” (858 Therapeutics, Inc., priority 2023, published 2026)
pIC50: −log10 of the molar value.

Target: T1, cellular PARG (Homo sapiens, UniProt Q86W56)
T1 construct: endogenous in cells; host or cells: HeLa
Test: Nuclear PAR accumulation assay (immunofluorescence high-content imaging, MMS-treated HeLa cells)
Assay type: cell-based
Details: 1 hour compound then MMS 50 μg/mL for an additional hour
How it was run: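 HeLa cells pretreated with compound for 1 h at 37° C, then given 50 μg/mL MMS for another hour. After methanol fixation, PAR was immunostained with DAPI nuclear counterstain; per-nucleus intensity and percent PAR-positive cells were imaged at 20× (≥1,000 cells/well). IC50 from four-parameter logistic fit.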

T1 sequence (Q86W56 whole entry): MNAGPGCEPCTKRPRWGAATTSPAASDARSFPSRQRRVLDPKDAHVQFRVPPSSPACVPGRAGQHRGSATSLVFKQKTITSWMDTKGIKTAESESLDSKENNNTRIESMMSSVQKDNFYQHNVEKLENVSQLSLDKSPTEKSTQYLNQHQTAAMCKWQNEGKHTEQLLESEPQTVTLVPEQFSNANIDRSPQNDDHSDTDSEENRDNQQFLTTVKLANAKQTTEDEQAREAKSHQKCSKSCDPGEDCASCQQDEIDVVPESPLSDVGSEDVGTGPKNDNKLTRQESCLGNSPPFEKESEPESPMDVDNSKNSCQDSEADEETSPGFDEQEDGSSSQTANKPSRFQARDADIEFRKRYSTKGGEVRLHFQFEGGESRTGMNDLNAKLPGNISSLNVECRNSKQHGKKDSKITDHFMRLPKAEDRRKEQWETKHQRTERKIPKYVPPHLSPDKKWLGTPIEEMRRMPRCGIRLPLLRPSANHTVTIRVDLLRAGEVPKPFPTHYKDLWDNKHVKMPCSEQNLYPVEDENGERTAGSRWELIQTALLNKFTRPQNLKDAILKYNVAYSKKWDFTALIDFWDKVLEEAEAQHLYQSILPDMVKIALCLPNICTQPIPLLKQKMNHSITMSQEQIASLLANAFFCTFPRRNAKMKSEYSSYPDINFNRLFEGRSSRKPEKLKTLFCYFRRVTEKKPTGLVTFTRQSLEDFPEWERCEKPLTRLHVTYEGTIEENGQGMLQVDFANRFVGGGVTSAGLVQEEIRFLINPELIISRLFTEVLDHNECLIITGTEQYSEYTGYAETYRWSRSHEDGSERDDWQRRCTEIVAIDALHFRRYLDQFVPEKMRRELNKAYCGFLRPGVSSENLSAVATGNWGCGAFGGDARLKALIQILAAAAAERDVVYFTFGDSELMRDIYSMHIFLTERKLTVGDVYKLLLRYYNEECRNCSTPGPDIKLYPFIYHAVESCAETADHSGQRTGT

pIC50 | SMILES
> 7.00 | [2H]C([2H])(c1cnn(C)c1)N1C(=O)c2cc(S(=O)(=O)NC3(C)CC3)c(N)cc2N2C1=N[C@H]1CCC[C@H]12 [Example 234, (7aS,10aR)-2-amino-6-((1-methyl-1H-pyrazol-4-yl)methyl-d2)-N-(1-methylcyclopropyl)-5-oxo-6,7a,8,9,10,10a-hexahydro-5H-cyclopenta[4,5]imidazo[1,2-a]quinazoline-3-sulfonamide]
> 7.00 | Cn1cc(CN2C(=O)c3cc(S(=O)(=O)NC4(C)CC4)ccc3N3C2=NC[C@H]3C#Cc2nccn2C)cn1 [Example 83, (R)-1-((1-methyl-1H-imidazol-2-yl)ethynyl)-4-((1-methyl-1H-pyrazol-4-yl)methyl)-N-(1-methylcyclopropyl)-5-oxo-1,2,4,5-tetrahydroimidazo[1,2-a]quinazoline-7-sulfonamide]
> 7.00 | [2H]C([2H])([2H])N1C(=O)c2cc(S(=O)(=O)NC3(C)CC3)ccc2N2C1=NCC2C#Cc1cnc2cccnn12 (stereo not shown) [Example 184, 1-(imidazo[1,2-b]pyridazin-3-ylethynyl)-4-(methyl-d3)-N-(1-methylcyclopropyl)-5-oxo-1,2,4,5-tetrahydroimidazo[1,2-a]quinazoline-7-sulfonamide]
> 7.00 | CCN1C(=O)c2cc(S(=O)(=O)NC3(C)CC3)ccc2N2C1=NC[C@H]2C#Cc1cn(C)nc1C [Example 265, (R)-1-((1,3-dimethyl-1H-pyrazol-4-yl)ethynyl)-4-ethyl-N-(1-methylcyclopropyl)-5-oxo-1,2,4,5-tetrahydroimidazo[1,2-a]quinazoline-7-sulfonamide]
6.00 to 7.00 | Cn1cc(CN2C(=O)c3cc(S(=O)(=O)NC4(C)CC4)ccc3N3C2=NC[C@H]3C#C[C@H]2CCCN2)cn1 [Example 248, (R)-4-((1-methyl-1H-pyrazol-4-yl)methyl)-N-(1-methylcyclopropyl)-5-oxo-1-(((R)-pyrrolidin-2-yl)ethynyl)-1,2,4,5-tetrahydroimidazo[1,2-a]quinazoline-7-sulfonamide]
> 7.00 | C[C@@H]1[C@H](CO)N=C2N(Cc3cnn(C)c3)C(=O)c3cc(S(=O)(=O)NC4(C)CC4)ccc3N21 [Example 294, (1R,2R)-2-(hydroxymethyl)-1-methyl-4-((1-methyl-1H-pyrazol-4-yl)methyl)-N-(1-methylcyclopropyl)-5-oxo-1,2,4,5-tetrahydroimidazo[1,2-a]quinazoline-7-sulfonamide]
> 7.00 | Cn1cc(CN2C(=O)c3cc(S(=O)(=O)NC4(C)CC4)ccc3N3C2=NC[C@H]3C#Cc2c(F)cnn2C)cn1 [Example 217, (R)-1-((4-fluoro-1-methyl-1H-pyrazol-5-yl)ethynyl)-4-((1-methyl-1H-pyrazol-4-yl)methyl)-N-(1-methylcyclopropyl)-5-oxo-1,2,4,5-tetrahydroimidazo[1,2-a]quinazoline-7-sulfonamide]
> 7.00 | CN1C(=O)c2cc(S(=O)(=O)NC3(C)CC3)ccc2N2C1=NC[C@H]2C#Cc1cnc2ccc(C#N)nn12 [Example 180, (R)-1-((6-cyanoimidazo[1,2-b]pyridazin-3-yl)ethynyl)-4-methyl-N-(1-methylcyclopropyl)-5-oxo-1,2,4,5-tetrahydroimidazo[1,2-a]quinazoline-7-sulfonamide]
> 7.00 | CC1(NS(=O)(=O)c2ccc3c(c2)N(c2nnc(C(F)F)s2)C2=NOCCN23)CC1 [Example 86, 10-(5-(difluoromethyl)-1,3,4-thiadiazol-2-yl)-N-(1-methylcyclopropyl)-3,4-dihydro-10H-benzo[4,5]imidazo[2,1-c][1,2,4]oxadiazine-8-sulfonamide]
5.00 to 6.00 | [2H]C([2H])(c1cnn(C)c1)N1C(=O)c2cc(S(=O)(=O)NC3(C)CC3)ccc2N2C1=N[C@H]1C[C@H](N(C)C)C[C@H]12 [Example 284, (7aS,9S,10aR)-9-(dimethylamino)-6-((1-methyl-1H-pyrazol-4-yl)methyl-d2)-N-(1-methylcyclopropyl)-5-oxo-6,7a,8,9,10,10a-hexahydro-5H-cyclopenta[4,5]imidazo[1,2-a]quinazoline-3-sulfonamide]
> 7.00 | [2H]C([2H])(c1cnn(C)c1)N1C(=O)c2cc(S(=O)(=O)NC3(C)CC3)ccc2N2C1=NC[C@H]2C#Cc1cncnc1NC [Example 263, (R)-4-((1-methyl-1H-pyrazol-4-yl)methyl-d2)-1-((4-(methylamino)pyrimidin-5-yl)ethynyl)-N-(1-methylcyclopropyl)-5-oxo-1,2,4,5-tetrahydroimidazo[1,2-a]quinazoline-7-sulfonamide]
6.00 to 7.00 | Cn1cc(CN2C(=O)c3cc(S(=O)(=O)NC4(C)CC4)cc(Br)c3N3CCN=C23)cn1 [Example 18, 9-bromo-4-((1-methyl-1H-pyrazol-4-yl)methyl)-N-(1-methylcyclopropyl)-5-oxo-1,2,4,5-tetrahydroimidazo[1,2-a]quinazoline-7-sulfonamide]
6.00 to 7.00 | CC(=O)N1CCn2ncc(CN3C(=O)c4cc(S(=O)(=O)NC5(C)CC5)ccc4N4C3=N[C@H]3CCC[C@H]34)c2C1 [Example 291, (7aS,10aR)-6-((5-acetyl-4,5,6,7-tetrahydropyrazolo[1,5-a]pyrazin-3-yl)methyl)-N-(1-methylcyclopropyl)-5-oxo-6,7a,8,9,10,10a-hexahydro-5H-cyclopenta[4,5]imidazo[1,2-a]quinazoline-3-sulfonamide]
> 7.00 | Cn1cc(CN2C(=O)c3cc(S(=O)(=O)NC4(C)CC4)ccc3N3C2=NC[C@H]3C#CCN2CCCC2)cn1 [Example 87, (R)-4-((1-methyl-1H-pyrazol-4-yl)methyl)-N-(1-methylcyclopropyl)-5-oxo-1-(3-(pyrrolidin-1-yl)prop-1-yn-1-yl)-1,2,4,5-tetrahydroimidazo[1,2-a]quinazoline-7-sulfonamide]

Further lines, the molecule ahead of its results:

SMILES | pIC50
C[C@@H]1CCN=C2N(c3nnc(C(F)F)s3)c3cc(S(=O)(=O)NC4(C)CC4)ccc3N21 [Example 85] | > 7.00
[2H]C([2H])(c1cnn(C)c1)N1C(=O)c2cc(S(=O)(=O)NC3(C)CC3)cc(Cl)c2N2C1=NC[C@@H]2C#CC1CC1 [Example 92, (S)-9-chloro-1-(cyclopropylethynyl)-4-((1-methyl-1H-pyrazol-4-yl)methyl-d2)-N-(1-methylcyclopropyl)-5-oxo-1,2,4,5-tetrahydroimidazo[1,2-a]quinazoline-7-sulfonamide] | 6.00 to 7.00
CCN1C(=O)c2cc(S(=O)(=O)NC3(C)CC3)ccc2N2C1=NC[C@H]2C#Cc1cc(C2CC2)nn1C [Example 228, (R)-1-((3-cyclopropyl-1-methyl-1H-pyrazol-5-yl)ethynyl)-4-ethyl-N-(1-methylcyclopropyl)-5-oxo-1,2,4,5-tetrahydroimidazo[1,2-a]quinazoline-7-sulfonamide] | > 7.00
CCN1C(=O)c2cc(S(=O)(=O)NC3(C)CC3)ccc2N2C1=NC[C@H]2C#Cc1nn(C)nc1C [Example 257, (R)-1-((2,5-dimethyl-2H-1,2,3-triazol-4-yl)ethynyl)-4-ethyl-N-(1-methylcyclopropyl)-5-oxo-1,2,4,5-tetrahydroimidazo[1,2-a]quinazoline-7-sulfonamide] | > 7.00
Cn1cc(CN2C(=O)c3cc(S(=O)(=O)NC4(C)CC4)ccc3N3C2=NC[C@H]3C2CCCC2)cn1 [Example 48, (R)-1-cyclopentyl-4-((1-methyl-1H-pyrazol-4-yl)methyl)-N-(1-methylcyclopropyl)-5-oxo-1,2,4,5-tetrahydroimidazo[1,2-a]quinazoline-7-sulfonamide] | > 7.00
[2H]C([2H])(c1cnn(C)c1)N1C(=O)c2cc(S(=O)(=O)NC3(C)CC3)ccc2N2C1=NC[C@H]2C#CCN(C)C [Example 55, (R)-1-(3-(dimethylamino)prop-1-yn-1-yl)-4-((1-methyl-1H-pyrazol-4-yl)methyl-d2)-N-(1-methylcyclopropyl)-5-oxo-1,2,4,5-tetrahydroimidazo[1,2-a]quinazoline-7-sulfonamide] | > 7.00
CCN1C(=O)c2cc(S(=O)(=O)NC3(C)CC3)ccc2N2C1=NC[C@H]2C#Cc1cnc2cc(CN(C)C)cnn12 [Example 191, (R)-1-((7-((dimethylamino)methyl)imidazo[1,2-b]pyridazin-3-yl)ethynyl)-4-ethyl-N-(1-methylcyclopropyl)-5-oxo-1,2,4,5-tetrahydroimidazo[1,2-a]quinazoline-7-sulfonamide] | > 7.00
[2H]C([2H])(c1cnn(C)c1)N1C(=O)c2cc(S(=O)(=O)NC3(C)CC3)ccc2N2C1=NC[C@H]2C#Cc1cnn(C)n1 [Example 163, (R)-4-((1-methyl-1H-pyrazol-4-yl)methyl-d2)-1-((2-methyl-2H-1,2,3-triazol-4-yl)ethynyl)-N-(1-methylcyclopropyl)-5-oxo-1,2,4,5-tetrahydroimidazo[1,2-a]quinazoline-7-sulfonamide] | > 7.00
Cn1cc(CN2C(=O)c3cc(S(=O)(=O)NC4(C)CC4)ccc3N3C[C@H](c4ccccc4)N=C23)cn1 [Example 155, (S)-4-((1-methyl-1H-pyrazol-4-yl)methyl)-N-(1-methylcyclopropyl)-5-oxo-2-phenyl-1,2,4,5-tetrahydroimidazo[1,2-a]quinazoline-7-sulfonamide] | > 7.00
[2H]C([2H])(c1cnn(C)c1)N1C(=O)c2cc(S(=O)(=O)NC3(C)CC3)c(F)cc2N2C1=N[C@H]1CCC[C@H]12 [Example 212, (7aS,10aR)-2-fluoro-6-((1-methyl-1H-pyrazol-4-yl)methyl-d2)-N-(1-methylcyclopropyl)-5-oxo-6,7a,8,9,10,10a-hexahydro-5H-cyclopenta[4,5]imidazo[1,2-a]quinazoline-3-sulfonamide] | > 7.00
CN1C(=O)c2cc(S(=O)(=O)NC3(C)CC3)cc(Br)c2N2C1=NC[C@H]2C#CC1CC1 [Example 34, (R)-9-bromo-1-(cyclopropylethynyl)-4-methyl-N-(1-methylcyclopropyl)-5-oxo-1,2,4,5-tetrahydroimidazo[1,2-a]quinazoline-7-sulfonamide] | > 7.00
